Type in all cases: cell-based
For one assay, the system named is TNF-α. Put plainly: Western blot, TNF-α expression inhibition, LPS-stimulated cells. The protocol: (§1) Raw 264.7 macrophage cell (KCBL, 40071) from Korea Cell Bank was maintained in Dulbecco's modified Eagle's medium (DMEM; PAA, Austria) containing 10% fetal bovine serum (FBS; Gibco Laboratories), 100 unit/mL of streptomycin, and penicillin (Gibco Laboratories) at 37° C. with 5% CO2. Raw264.7 cells were seeded into a 96-well plate at a density of 1×10^6 cells/mL and incubated overnight.
(§2) On the following day, the medium was replaced with fresh medium and 5 μg/mL of peptide (obtained as described in Experiment example 1) was added to the cells. After 30 min incubation of cells with the peptide 50 μL of LPS (to a final concentration of 1 μg/mL) was added, and cells were incubated for additional 24 hr. The experimental sample with the induction of inflammatory response was treated with 1 μg/mL mL lipopolysaccharide (LPS; Sigma, USA) and control sample was treated with phosphate buffered saline (PBS; pH 7.2). The supernatant samples from each condition was collected in eppendorf tubes and subjected to further analysis.
(§3) Protein expression level was determined by Western blot analysis. […] The membrane was incubated with ECL (enhanced chemiluminesence) solution (Amersham Life Science Corp., Arlington Heights, Ill., USA), exposed to X-ray, and the level of protein expression was analyzed according to the exposure level shown on the X-ray film.
Background: Immunoblotting shows a protein as a band on a membrane.

Another assay relates to nitric oxide (NO). Briefly: NO level analysis (Griess reagent) in LPS-stimulated Raw 264.7 cells. The note with it: Raw 264.7 cell, LPS 1 μg/mL, PEP 1 0.5 μg/mL. As to the method:
as §1
[…] After 30 min incubation of cells with the peptide 50 μL of LPS (to a final concentration of 1 μg/mL) was added, and cells were incubated for additional 24 hr. The experimental sample with the induction of inflammatory response was treated with 1 μg/mL mL lipopolysaccharide (LPS; Sigma, USA) and control sample was treated with phosphate buffered saline (PBS; pH 7.2). The supernatant samples from each condition was collected in eppendorf tubes and subjected to further analysis.
The level of nitric oxide (NO) was measured in Raw 264.7 cell (1×10^6 cell/ml) using Griess reagent system (Promega, USA). Culture medium of 50 μl was added to a 96-well plate and Griess reagent I […] are added in the same amount. After 10 min incubation of cells with the reagents, the optical density at 540 nm was measured within 30 min using a microplate reader (Molecular Devices, USA). The concentration of NO was calculated by using a standard curve (0˜100 μM) of sodium nitrite.

The next assay has as its system COX-2. Put plainly: Western blot, COX-2 expression inhibition, LPS-stimulated cells. The protocol: as §1, §2, §3
Another assay concerns IL-6. Briefly: IL-6 secretion measurement (ELISA) in LPS-challenged RAW 264.7 cells. The note with it: RAW 264.7 cell, LPS 1 μg/mL, PEP 1 5 μg/ml, 24 hr. The protocol: as §1, §2
To investigate the effect of PEP1 on inhibiting pro-inflammatory cytokine production RAW 264.7 cell were pre-treated with PEP 1 at a concentration of 5 μg/mL challenged with LPS at a concentration of 1 μg/mL, and cells were further incubated for 24 hr. The supernatant samples containing cell culture medium was collected and analyzed for the cytokine levels using ELISA kits (eBioscience, San Diego).
96 wells plates were coated with 100 μl of capture antibodies (diluted in coating buffer to the concentration recommended by manufacturer's protocol) overnight at 4° C. Then, after washing the plates 5 times, 200 μL of assay diluents was added to each well and incubated for 1 hr at room temperature for blocking. […]
Following incubation with the secondary antibody, the plate was washed five times and incubated with 100 μl of avidin-HRP (BD Bioscience) for 30 min at room temperature. […] The reaction was stopped by adding 50 μl of 2N H2SO4 in each well The optical density at 450 nm was measured using a microplate reader. […]

The next assay has as its system HMGB1. Briefly: Western blot, HMGB1 expression inhibition, LPS-stimulated cells. As to the method: as §1, §2, §3
[1] abbreviates: cells treated with both LPS and Pep1.

Take EARPALLTSRLRFIPK [PEP 1]: in the assay on TNF-α (LPS 1 μg/ml, PEP 1 5 μg/ml), the “Cytokine Expression Level (band intensity) % of control TNF-α” value stood at 25%. Also, the “decrease of pro-inflammatory cytokine level (TNF-α)” value with TNF-α (setting [1]) is reported as “more than 70%”. Also, in the assay on nitric oxide (NO), the “Decreased NO Expression Level (%)” value worked out at 65% and the “NO Expression Level of control (%)” value was found to be 35%. Further, the “NO Expression Level of control (%)” value in the assay on nitric oxide (NO) (listed as Pep1) amounted to 65%. Further, the “Cytokine Expression Level (band intensity) % of control COX-2” value in the assay on COX-2 (LPS 1 μg/ml, PEP 1 5 μg/ml) was 22%. Also, the “decrease of pro-inflammatory cytokine level (COX)” value in the assay on COX-2 (setting [1]) was “more than 70%”. In addition, in the assay with IL-6, the “cytokine IL-6 production % of control” value was determined as 28% and the “cytokine IL-6 production inhibition %” value amounted to 72%. The “cytokine IL-6 production inhibition %” value in the assay with IL-6 (listed as PEP-1) is “more than 70%”. Moreover, the “Cytokine Expression Level (band intensity) % of control HMGB1” value in the assay with HMGB1 (LPS 1 μg/ml, PEP 1 5 μg/ml) worked out at 30%. For the same sequence, the “decrease of pro-inflammatory cytokine level (HMGB1)” value in the assay on HMGB1 (setting [1]) is listed as “more than 70%”.
